According to ChEMBL document CHEMBL1201862, “PubChem BioAssay data set” (2004):
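The compound was tested at five concentrations on cells cultured in 96-well plates, with a 48-hour exposure period. At the GI50, growth is halved.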 The source made the active and inactive calls. Rule as the data show it: active = GI50 up to about 1.1 µM and inactive = higher.

Assays:
Test in all cases: NCI-60 cell line screen, 48 h
UACC-257 = test system: UACC-257
SF-539 = test system: SF-539
A549 = test system: A549
U-251 = test system: U-251
SNB-19 = test system: SNB-19
OVCAR-3 = test system: OVCAR-3
TK-10 = test system: TK-10
OVCAR-4 = test system: OVCAR-4
RXF 393 = test system: RXF 393
A498 = test system: A498
CAKI-1 = test system: CAKI-1
NCI-H23 = test system: NCI-H23
SR = test system: SR
HCT-116 = test system: HCT-116
NCI-H522 = test system: NCI-H522
HOP-92 = test system: HOP-92

N#Cc1c2c(c(Cl)n3c1nc1ccccc13)CCCC2
GI50 (UACC-257): 2.05 µM (inactive) | GI50 (SF-539): 3.95 µM (inactive) | GI50 (A549): 4.25 µM (inactive) | GI50 (U-251): 3.65 µM (inactive) | GI50 (SNB-19): 4.69 µM (inactive) | GI50 (OVCAR-3): 6.5 µM (inactive) | GI50 (TK-10): 2.53 µM (inactive) | GI50 (OVCAR-4): 4.35 µM (inactive) | GI50 (RXF 393): 0.272 µM (active) | GI50 (A498): 11.4 µM (inactive) | GI50 (CAKI-1): 2.76 µM (inactive) | GI50 (NCI-H23): 4.54 µM (inactive) | GI50 (SR): 2.38 µM (inactive) | GI50 (HCT-116): 2.75 µM (inactive)

CCOC(=O)C1=C(C)NC(=S)NC1c1ccccc1 (stereo unspecified)
GI50 (UACC-257): > 100 µM (inactive) | GI50 (SF-539): > 100 µM (inactive) | GI50 (A549): > 100 µM (inactive) | GI50 (NCI-H522): > 63.8 µM (inactive) | GI50 (U-251): > 39.3 µM (inactive) | GI50 (OVCAR-3): > 100 µM (inactive) | GI50 (TK-10): > 100 µM (inactive) | GI50 (OVCAR-4): 32.3 µM (inactive) | GI50 (RXF 393): > 66.2 µM (inactive) | GI50 (A498): > 100 µM (inactive) | GI50 (CAKI-1): > 20 µM (inactive) | GI50 (HOP-92): > 100 µM (inactive) | GI50 (NCI-H23): > 100 µM (inactive) | GI50 (SR): 21.8 µM (inactive) | GI50 (HCT-116): > 59 µM (inactive)

Brc1cc2c(cc1C1SCCS1)OCO2
GI50 (UACC-257): > 100 µM (inactive) | GI50 (SF-539): > 100 µM (inactive) | GI50 (A549): > 100 µM (inactive) | GI50 (NCI-H522): > 100 µM (inactive) | GI50 (U-251): > 100 µM (inactive) | GI50 (SNB-19): > 100 µM (inactive) | GI50 (OVCAR-3): > 100 µM (inactive) | GI50 (TK-10): > 100 µM (inactive) | GI50 (OVCAR-4): > 100 µM (inactive) | GI50 (A498): > 100 µM (inactive) | GI50 (CAKI-1): > 100 µM (inactive) | GI50 (NCI-H23): > 100 µM (inactive) | GI50 (SR): > 100 µM (inactive) | GI50 (HCT-116): > 100 µM (inactive)

O=C1c2cccc3cccc(c23)C(=O)N1CCN(CCO)CCO
GI50 (UACC-257): 22.5 µM (inactive) | GI50 (SF-539): 23.5 µM (inactive) | GI50 (A549): 27.2 µM (inactive) | GI50 (U-251): 32.4 µM (inactive) | GI50 (SNB-19): 38.3 µM (inactive) | GI50 (OVCAR-3): 33.8 µM (inactive) | GI50 (TK-10): 17.5 µM (inactive) | GI50 (OVCAR-4): 25.5 µM (inactive) | GI50 (RXF 393): 20.9 µM (inactive) | GI50 (A498): 17.3 µM (inactive) | GI50 (HOP-92): 26.7 µM (inactive) | GI50 (NCI-H23): 25.4 µM (inactive) | GI50 (SR): 11.3 µM (inactive) | GI50 (HCT-116): 16.9 µM (inactive)

CC1=CP(=O)(OC(C)C)CC(C)=C1Cl (stereo unspecified)
GI50 (UACC-257): > 100 µM (inactive) | GI50 (SF-539): 95.1 µM (inactive) | GI50 (A549): > 100 µM (inactive) | GI50 (NCI-H522): 52.6 µM (inactive) | GI50 (U-251): > 100 µM (inactive) | GI50 (SNB-19): > 100 µM (inactive) | GI50 (OVCAR-3): > 100 µM (inactive) | GI50 (TK-10): > 100 µM (inactive) | GI50 (RXF 393): > 100 µM (inactive) | GI50 (A498): > 100 µM (inactive) | GI50 (CAKI-1): > 100 µM (inactive) | GI50 (HOP-92): > 100 µM (inactive) | GI50 (NCI-H23): > 100 µM (inactive) | GI50 (SR): 41.1 µM (inactive) | GI50 (HCT-116): > 100 µM (inactive)

CCOC(=O)C(=O)Nc1ccccc1C(C)C
GI50 (UACC-257): > 100 µM (inactive) | GI50 (SF-539): > 100 µM (inactive) | GI50 (A549): > 100 µM (inactive) | GI50 (NCI-H522): > 100 µM (inactive) | GI50 (U-251): > 100 µM (inactive) | GI50 (SNB-19): > 100 µM (inactive) | GI50 (OVCAR-3): > 100 µM (inactive) | GI50 (TK-10): > 100 µM (inactive) | GI50 (OVCAR-4): > 100 µM (inactive) | GI50 (A498): > 100 µM (inactive) | GI50 (CAKI-1): > 100 µM (inactive) | GI50 (HOP-92): > 100 µM (inactive) | GI50 (NCI-H23): > 100 µM (inactive) | GI50 (SR): > 100 µM (inactive) | GI50 (HCT-116): > 100 µM (inactive)

COc1ccc2cccc(C(=O)c3ccc(C)c4c3CCC4)c2c1
GI50 (UACC-257): 30.1 µM (inactive) | GI50 (A549): 49.9 µM (inactive) | GI50 (NCI-H522): 22.5 µM (inactive) | GI50 (U-251): 53.7 µM (inactive) | GI50 (SNB-19): > 100 µM (inactive) | GI50 (OVCAR-3): 35.2 µM (inactive) | GI50 (TK-10): 32.3 µM (inactive) | GI50 (OVCAR-4): 85.5 µM (inactive) | GI50 (RXF 393): 41.4 µM (inactive) | GI50 (A498): 34.1 µM (inactive) | GI50 (CAKI-1): 31.7 µM (inactive) | GI50 (NCI-H23): 34.1 µM (inactive) | GI50 (SR): 23.6 µM (inactive) | GI50 (HCT-116): 37.7 µM (inactive)
